This passage reports relative viability results from the supplement of paper PMC10307832.

Test in all cases: relative viability (nuclei count vs DMSO), 5 days (fraction); higher = more cells survive
Compound in experiment [1]: C=CCNC1=C2C[C@@H](C)C[C@H](OC)[C@H](O)[C@@H](C)/C=C(\C)[C@H](OC(N)=O)[C@@H](OC)/C=C\C=C(/C)C(=O)NC(=CC1=O)C2=O [17-AAG] + CC(C)C[C@H](NC(=O)[C@H](Cc1ccccc1)NC(=O)c1cnccn1)B(O)O [Bortezomib] (partner 0.002 µM)
A digest of the protocol:
(§1)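 Lung cancer cell lines were seeded in 1536-well plates and dosed by pin tool the next day, with either a single drug or a fixed anchor-drug dose combined with five library-drug doses (not always all listed) spaced in √10 steps. Five days later, one step fixed the cells and stained their nuclei (final 0.05% Triton X-100, 1% formaldehyde, 1 ug/ml Hoechst), and nuclei were counted on 4× images. Relative viability is the nuclei count in treated wells divided by the count in vehicle wells, and each value is the median of duplicate plates.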

Compound in experiment [2]: C=CCNC1=C2C[C@@H](C)C[C@H](OC)[C@H](O)[C@@H](C)/C=C(\C)[C@H](OC(N)=O)[C@@H](OC)/C=C\C=C(/C)C(=O)NC(=CC1=O)C2=O [17-AAG] + Cc1nc(Nc2ncc(C(=O)Nc3c(C)cccc3Cl)s2)cc(N2CCN(CCO)CC2)n1 [Dasatinib] (partner 0.075 µM)
The gist of the method:
as §1

Compound in experiment [3]: C=CCNC1=C2C[C@@H](C)C[C@H](OC)[C@H](O)[C@@H](C)/C=C(\C)[C@H](OC(N)=O)[C@@H](OC)/C=C\C=C(/C)C(=O)NC(=CC1=O)C2=O [17-AAG] + Cc1nc(NC(=O)N2CCC[C@H]2C(N)=O)sc1-c1ccnc(C(C)(C)C(F)(F)F)c1 [Alpelisib] (partner 2 µM)
The gist of the method:
as §1

Compound in experiment [4]: C=CCNC1=C2C[C@@H](C)C[C@H](OC)[C@H](O)[C@@H](C)/C=C(\C)[C@H](OC(N)=O)[C@@H](OC)/C=C\C=C(/C)C(=O)NC(=CC1=O)C2=O [17-AAG] + CC(=O)c1c(C)c2cnc(Nc3ccc(N4CCNCC4)cn3)nc2n(C2CCCC2)c1=O [Palbociclib] (partner 0.5 µM)
A digest of the protocol:
as §1

For NCI-H596, the relative viability in experiment [1] (first compound 0.00128 µM) amounted to 0.991; in experiment [1] (first compound 0.004048 µM) it was 0.974; in experiment [1] (first compound 0.0128 µM), 1.09; in experiment [1] (first compound 0.04048 µM), 0.994; in experiment [1] (first compound 0.128 µM) it was 0.844; in experiment [2] (first compound 0.00128 µM), 0.587. Besides, the relative viability is 0.524 in experiment [2] (first compound 0.004048 µM); 0.579 in experiment [2] (first compound 0.0128 µM); 0.587 in experiment [2] (first compound 0.04048 µM); 0.238 in experiment [2] (first compound 0.128 µM); 0.479 in experiment [3] (first compound 0.00128 µM); 0.648 in experiment [3] (first compound 0.004048 µM). Moreover, the values for the relative viability in experiment [3] (first compound 0.0128 µM), in experiment [3] (first compound 0.04048 µM) and in experiment [3] (first compound 0.128 µM) were 0.564, 0.454 and 0.358, respectively.
Take NCI-H727: the relative viability in experiment [4] (first compound 0.00128 µM) was determined as 0.661; in experiment [4] (first compound 0.004048 µM) it was 0.706; in experiment [4] (first compound 0.0128 µM), 0.588; in experiment [4] (first compound 0.04048 µM) it was 0.482; in experiment [4] (first compound 0.128 µM), 0.425; in experiment [1] (first compound 0.00128 µM), 0.795. Moreover, the relative viability came to 0.766 in experiment [1] (first compound 0.004048 µM); 0.784 in experiment [1] (first compound 0.0128 µM); 0.322 in experiment [1] (first compound 0.04048 µM); 0.229 in experiment [1] (first compound 0.128 µM); 0.378 in experiment [2] (first compound 0.00128 µM); 0.376 in experiment [2] (first compound 0.004048 µM). In addition, the relative viability in experiment [2] (first compound 0.0128 µM) is 0.326; in experiment [2] (first compound 0.04048 µM) it was 0.231; in experiment [2] (first compound 0.128 µM) it was 0.214; in experiment [3] (first compound 0.00128 µM), 0.519; in experiment [3] (first compound 0.004048 µM), 0.63; in experiment [3] (first compound 0.0128 µM) it was 0.358. For the same cell line, the relative viability in experiment [3] (first compound 0.04048 µM) was determined as 0.182; in experiment [3] (first compound 0.128 µM), 0.192.
For NCI-H661, the relative viability in experiment [4] (first compound 0.00128 µM) stood at 0.411; in experiment [4] (first compound 0.004048 µM), 0.365; in experiment [4] (first compound 0.0128 µM), 0.314; in experiment [4] (first compound 0.04048 µM), 0.353; in experiment [4] (first compound 0.128 µM) it was 0.254; in experiment [1] (first compound 0.00128 µM) it was 0.857. Also, the relative viability is 0.912 in experiment [1] (first compound 0.004048 µM); 0.781 in experiment [1] (first compound 0.0128 µM); 0.637 in experiment [1] (first compound 0.04048 µM); 0.393 in experiment [1] (first compound 0.128 µM); 0.878 in experiment [2] (first compound 0.00128 µM); 0.862 in experiment [2] (first compound 0.004048 µM). Besides, the relative viability in experiment [2] (first compound 0.0128 µM) was 0.853; in experiment [2] (first compound 0.04048 µM), 0.361; in experiment [2] (first compound 0.128 µM), 0.195; in experiment [3] (first compound 0.00128 µM) it was 0.573; in experiment [3] (first compound 0.004048 µM), 1; in experiment [3] (first compound 0.0128 µM), 0.728. Moreover, the relative viability in experiment [3] (first compound 0.04048 µM) was 0.347; in experiment [3] (first compound 0.128 µM), 0.188.
For NCI-H650, the relative viability stood at 0.325 in experiment [4] (first compound 0.00128 µM); 0.356 in experiment [4] (first compound 0.004048 µM); 0.371 in experiment [4] (first compound 0.0128 µM); 0.339 in experiment [4] (first compound 0.04048 µM); 0.161 in experiment [4] (first compound 0.128 µM); 0.78 in experiment [1] (first compound 0.00128 µM). In addition, the relative viability was found to be 0.99 in experiment [1] (first compound 0.004048 µM); 0.669 in experiment [1] (first compound 0.0128 µM); 0.236 in experiment [1] (first compound 0.04048 µM); 0.204 in experiment [1] (first compound 0.128 µM); 0.427 in experiment [2] (first compound 0.00128 µM); 0.468 in experiment [2] (first compound 0.004048 µM). For the same cell line, the relative viability in experiment [2] (first compound 0.0128 µM) worked out at 0.4; in experiment [2] (first compound 0.04048 µM), 0.256; in experiment [2] (first compound 0.128 µM), 0.136; in experiment [3] (first compound 0.00128 µM), 1.19; in experiment [3] (first compound 0.004048 µM), 1.09; in experiment [3] (first compound 0.0128 µM), 1.26. Also, the relative viability was 0.855 in experiment [3] (first compound 0.04048 µM) and 0.326 in experiment [3] (first compound 0.128 µM).
